From patent publication US11299493B2, “Heterocyclic compounds and uses thereof” (NUVATION BIO INC., priority 2017, dated 2022)

What was measured:
WEE1 kinase enzyme = WEE1 kinase enzyme (Homo sapiens (Human), UniProt P30291); assay: WEE1 IC50 determination, LanthaScreen Terbium Labeled TR-FRET kinase assay; assay type: biochemical; conditions: WEE1 enzyme 1 nM, ATP 10 μM, 1 h
Experimental: IC50 values of compounds against WEE1 kinase enzyme were determined by LanthaScreen™ Terbium Labeled TR-FRET assay. […] After 1 h, […] stop solution containing Terbium labeled antibody (4 nM) (#PV3529, Invitrogen, Life Technologies Grand Island, N.Y.) and EDTA (#E5134, Sigma, St-Louis, Mo.) (20 mM) in TR-FRET dilution buffer (#PV3574, Invitrogen, Life Technologies Grand Island, N.Y.) was added. Readings were taken in a Synergy Neo Plate reader (BioTek, Winooski) at single excitation of 340 nm and Dual emission at 495 nm and 520 nm respectively.
The % activity of test samples was calculated as (Sample−Min)*100/(Max−Min). [Max: DMSO control, complete reaction with enzyme & DMSO and Min: No enzyme & DMSO].

A549 cells = assay: Cytotoxicity assay (resazurin) in A549 cells; assay type: cell-based; conditions: Homo sapiens, A549, 96 hr, read-out: Cell Viability IC50 A549
Experimental: (§1) Cells were allowed to grow at 37° C. for 24 hr in 5% CO2 environment (culture conditions) in a Nuaire incubator (humidified). Serially diluted test compounds (100 μL) within the desired testing concentration ranges were added to the culture plate were further incubated in culture conditions for 72 hr and 96 hr for A427 and A549 respectively. The experiment was terminated at the designated incubation time by replacing the medium with 100 μL of 1 mM of resazurin (R7017; Sigma) prepared in respective culture medium, and the plates were further incubated in culture conditions for 4-6 hr. Fluorescence was recorded using a multimodal plate reader (Biotek Synergy Neo) at an excitation wavelength of 535 nm and emission wavelength of 590 nm to obtain relative fluorescence units. Data analysis was done by subtracting the background fluorescence (only medium blank) value from each reading and then normalizing with the vehicle control (DMSO treated cells) to obtain percent survival/proliferation. Percent survival was then subtracted by 100 to get the percent inhibition of proliferation which was used to calculate IC50 values.

A427 cells = assay: Cytotoxicity assay (resazurin) in A427 cells; assay type: cell-based; conditions: Homo sapiens, A-427, 72 h, A427, 72 hr, read-out: Cell Viability IC50 A427
Experimental: as §1

WEE1 kinase enzyme, sequence (P30291 whole entry): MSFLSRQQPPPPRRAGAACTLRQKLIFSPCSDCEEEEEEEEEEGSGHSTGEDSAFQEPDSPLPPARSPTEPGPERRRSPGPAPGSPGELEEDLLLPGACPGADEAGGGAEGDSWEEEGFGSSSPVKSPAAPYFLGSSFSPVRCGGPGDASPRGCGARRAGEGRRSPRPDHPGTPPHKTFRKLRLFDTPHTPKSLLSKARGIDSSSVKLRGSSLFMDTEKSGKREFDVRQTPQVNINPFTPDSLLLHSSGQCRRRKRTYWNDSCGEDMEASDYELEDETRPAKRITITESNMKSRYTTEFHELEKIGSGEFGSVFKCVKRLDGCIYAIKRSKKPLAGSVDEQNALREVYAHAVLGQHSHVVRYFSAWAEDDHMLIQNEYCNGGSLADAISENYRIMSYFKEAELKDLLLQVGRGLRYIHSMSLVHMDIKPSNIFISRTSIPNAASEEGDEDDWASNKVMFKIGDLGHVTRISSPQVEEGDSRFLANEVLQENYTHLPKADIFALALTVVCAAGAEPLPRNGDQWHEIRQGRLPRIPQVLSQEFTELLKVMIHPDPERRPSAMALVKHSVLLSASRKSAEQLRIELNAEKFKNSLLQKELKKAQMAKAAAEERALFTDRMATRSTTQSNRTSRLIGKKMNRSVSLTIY

IC50 (WEE1 kinase enzyme)	Structure (SMILES)	IC50 (A549 cells)	IC50 (A427 cells)
2 nM	CC(C)n1c(=O)c2cnc(Nc3ccc4c(c3)CNCC4)nc2n1-c1cccc(C(C)(C)O)n1 [Example 1.10]	510 nM	340 nM
4 nM	CC(C)n1c(=O)c2cnc(Nc3ccc4c(c3)CNCC43CC3)nc2n1-c1ccnc(C(C)(C)C)c1 [Example 1.161]		240 nM
15 nM	CC(C)n1c(=O)c2cnc(Nc3ccc4c(c3)CCNC4)nc2n1-c1ccnc(C(C)(C)F)c1 [Example 1.163]		720 nM
14 nM	CC(C)n1c(=O)c2cnc(Nc3ccc4c(c3)CNC4)nc2n1-c1ccnc(C(C)(C)C)c1 [Example 1.165]		1570 nM
4150 nM	CC(C)n1c(=O)c2cnc(Nc3ccc4c(c3)NCCC4)nc2n1-c1ccnc(C(C)(C)F)c1 [Example 1.168]		4000 nM
16 nM	CC(C)n1c(=O)c2cnc(Nc3ccc4c(c3)CNCC4)nc2n1-c1ccnc(C(C)(C)F)c1 [Example 1.169]		2740 nM
12 nM	CC(C)n1c(=O)c2cnc(Nc3ccc4c(c3)CCNC4)nc2n1-c1ccnc(N(C)C)c1 [Example 1.172]		1350 nM
12 nM	CC(C)n1c(=O)c2cnc(Nc3ccc4c(c3)CCNC4)nc2n1-c1ccnc(N(C)S(C)(=O)=O)c1 [Example 1.177]		1970 nM
14 nM	CC(C)n1c(=O)c2cnc(Nc3ccc4c(c3)CCNC4)nc2n1-c1ccnc(C(C)(C)O)c1 [Example 1.178]		6200 nM
34 nM	CC(C)n1c(=O)c2cnc(Nc3ccc4c(c3)CCNC4)nc2n1-c1ccc(F)c(C(C)(C)O)c1 [Example 2.185]		1540 nM
24 nM	CC(C)n1c(=O)c2cnc(Nc3ccc4c(c3)CNCC4)nc2n1-c1ccc(F)c(C(C)(C)O)c1 [Example 2.186]		905 nM
12 nM	CC(C)n1c(=O)c2cnc(Nc3ccc4c(c3)CCNC4(C)C)nc2n1-c1ccnc(C(C)(C)F)c1 [Example 2.187]		435 nM
120 nM	CC(C)n1c(=O)c2cnc(Nc3ccc4c(c3)CNCC4)nc2n1-c1cc(C(C)(C)C)ccn1 [Example 2.287]		1960 nM
217 nM	CC(C)n1c(=O)c2cnc(Nc3ccc4c(c3)CCNC4)nc2n1-c1cc(C(C)(C)C)ccn1 [Example 2.288]		2580 nM
> 3650 nM	COC(C)(C)c1cc(-n2c3nc(Nc4ccc5c(c4)CCNC5)ncc3c(=O)n2C(C)C)ccn1 [Example 2.293]		> 30000 nM
5 nM	CC(C)n1c(=O)c2cnc(Nc3ccc4c(c3)CCN(C)C4)nc2n1-c1ccnc(C(C)(C)C)c1 [Example 2.644]		2330 nM

The next lines start with the molecule.

Structure (SMILES)	IC50 (WEE1 kinase enzyme)	IC50 (A549 cells)	IC50 (A427 cells)
C=CCn1c(=O)c2cnc(Nc3ccc4c(c3)CCNC4)nc2n1-c1cccc(C(C)(C)O)n1 [Example 1.8]	1 nM	545 nM	
C=CCn1c(=O)c2cnc(Nc3ccc4c(c3)CN(C)CC4)nc2n1-c1cccc(C(C)(C)O)n1 [Example 1.9]	1 nM	520 nM	
CC(C)(O)c1cccc(-n2c3nc(Nc4ccc5c(c4)CNCC5)ncc3c(=O)n2CC2CC2)n1 [Example 1.11]	2 nM	1180 nM	430 nM
CCn1c(=O)c2cnc(Nc3ccc4c(c3)CNCC4(C)C)nc2n1-c1cccc(C(C)(C)O)n1 [Example 1.13]	1.5 nM	895 nM	1000 nM
CCn1c(=O)c2cnc(Nc3ccc4c(c3)CN(C(=O)CO)CC4(C)C)nc2n1-c1cccc(C(C)(C)O)n1 [Example 1.14]	1 nM	1620 nM	
CCCn1c(=O)c2cnc(Nc3ccc4c(c3)CNCC4)nc2n1-c1cccc(C(C)(C)O)n1 [Example 1.15]	1.5 nM	1200 nM	560 nM
CC(C)(O)c1cccc(-n2c3nc(Nc4ccc5c(c4)CNCC5)ncc3c(=O)n2C2CC2)n1 [Example 1.17]	9.5 nM	9060 nM	2320 nM
CC(C)(C)c1cc(-n2c3nc(Nc4ccc5c(c4)CNCC5)ncc3c(=O)n2C2CC2)ccn1 [Example 1.160]	30 nM		3980 nM
CC(C)n1c(=O)c2cnc(Nc3ccc4c(c3)CNCC4(C)C)nc2n1-c1ccnc(C(C)(C)C)c1 [Example 1.162]	11 nM		385 nM
CC(C)n1c(=O)c2cnc(Nc3ccc4c(c3)CC(N(C)C)C4)nc2n1-c1ccnc(C(C)(C)C)c1 (stereo not drawn) [Example 1.164]	8 nM		485 nM
CC(C)n1c(=O)c2cnc(Nc3ccc4c(c3)CCNC4)nc2n1-c1ccc(F)cc1 [Example 1.166]	29 nM		4130 nM
CC(C)n1c(=O)c2cnc(Nc3ccc4c(c3)CNCC4)nc2n1-c1ccc(F)cc1 [Example 1.167]	41 nM		2060 nM
CC(C)n1c(=O)c2cnc(Nc3ccc4c(c3)CCC(N(C)C)C4)nc2n1-c1ccnc(C(C)(C)C)c1 (stereo not drawn) [Example 1.170, 1-(2-tert-butylpyridin-4-yl)-6-{[6-(dimethylamino)-5,6,7,8-tetrahydronaphthalen-2-yl]amino}-2-(propan-2-yl)-1H,2H,3H-pyrazolo[3,4-d]pyrimidin-3-one]	12 nM		775 nM
CC(C)n1c(=O)c2cnc(Nc3ccc4c(c3)CC(N(C)C)CC4)nc2n1-c1ccnc(C(C)(C)C)c1 (stereo not drawn) [Example 1.171]	6 nM		735 nM
COC(=O)N1CCc2cc(Nc3ncc4c(=O)n(C(C)C)n(-c5ccnc(C(C)(C)C)c5)c4n3)ccc2C1 [Example 1.173]	343 nM		2330 nM
CC(C)(C)c1cc(-n2c3nc(Nc4ccc5c(c4)CNCC5)ncc3c(=O)n2CC(F)(F)F)ccn1 [Example 1.174]	108 nM		4000 nM

Structure (SMILES)	IC50 (WEE1 kinase enzyme)	IC50 (A549 cells)	IC50 (A427 cells)
CC(C)n1c(=O)c2cnc(Nc3ccc4c(c3)CCNC4)nc2n1-c1ccc(N(C)C)c(C(C)(C)C)c1 [Example 1.175]	156 nM		1160 nM
CC(C)n1c(=O)c2cnc(Nc3ccc4c(c3)CCNC4(C)C)nc2n1-c1ccnc(C(C)(C)C)c1 [Example 1.176]	8 nM		595 nM
CC(C)n1c(=O)c2cnc(Nc3ccc4c(c3)CNCC4)nc2n1-c1ccn(C2CC2)n1 [Example 2.189]	43 nM		1990 nM
CC(C)n1c(=O)c2cnc(Nc3ccc4c(c3)CCNC4)nc2n1-c1ccn(C)n1 [Example 2.289]	49 nM		8760 nM
CC(C)n1c(=O)c2cnc(Nc3ccc4c(c3)CCNC4)nc2n1-c1ccc(F)cn1 [Example 2.290]	90 nM		3370 nM
CC(C)n1c(=O)c2cnc(Nc3ccc4c(c3)CNCC4)nc2n1-c1ccc(F)cn1 [Example 2.291]	46 nM		7990 nM
CC(C)n1c(=O)c2cnc(Nc3ccc4c(c3)CNCC4)nc2n1-c1ccn(C)n1 [Example 2.292]	43 nM		13300 nM
CC(C)(F)c1cc(-n2c3nc(Nc4ccc5c(c4)CNCC5(C)C)ncc3c(=O)n2C2CC2)ccn1 [Example 2.605]	123 nM		5960 nM
CC(C)n1c(=O)c2cnc(Nc3ccc4c(c3)CCNC4(C)C)nc2n1-c1cccc(N(C)S(C)(=O)=O)n1 [Example 2.642]	6 nM		2460 nM
CC(C)n1c(=O)c2cnc(Nc3ccc4c(c3)CCNC4(C)C)nc2n1-c1ccn(C2CC2)n1 [Example 2.643]	26 nM		2180 nM
CC(C)n1c(=O)c2cnc(Nc3ccc4c(c3)CCNC4)nc2n1-c1cccc(N(C)S(C)(=O)=O)n1 [Example 2.645]	5 nM		4010 nM
CC(C)n1c(=O)c2cnc(Nc3ccc4c(c3)CNCC4(C)C)nc2n1-c1ccn(C2CC2)n1 [Example 2.646]	15 nM		4370 nM
CC(C)n1c(=O)c2cnc(Nc3ccc4c(c3)CCNC4)nc2n1-c1ccsc1 [Example 2.647]	10 nM		2650 nM
CC(C)n1c(=O)c2cnc(Nc3ccc4c(c3)CNCC4)nc2n1-c1cccc(C(C)(C)C#N)n1 [Example 3.035]	2 nM		420 nM
CC(C)n1c(=O)c2cnc(Nc3ccc4c(c3)CCNC4)nc2n1-c1cccc(C(C)(C)C#N)n1 [Example 3.036]	5 nM		250 nM
